Laboratory results reported in patent publication US20120021988A1, “METHODS FOR TREATING IMMUNE THROMBOCYTOPENIA” (priority 2007, published 2012).

Assays:
[1] = tested on: FCγIIIb (NA2); test: Repeated FcγR reverse ELISA with SEQ ID NO:20 (Table 3); assay type: binding
Procedure: (§1) Experiments with SEQ ID NO:20 were repeated. Costar microtiter plates were coated with 1:10 dilutions of highly purified FcγIIa (His 131 allele aka […]), FcγIIb and FcγIIIb and incubated for 24 hours. The plates were washed and then blocked with 10 mg/ml BSA blocking solution for 24 hours. PAP immune complexes were formed as described in Example 2. PAP (100 μl) were pre-incubated with 100 μl of peptide for one hour. PAP/peptide mixtures were added to the FcγR coated plates and incubated for one hour. After washing, plates were incubated with ABTS substrate for 15 minutes and read at 405 nm.

[2] = tested on: FcγIIa (His 131 allele); test: as above; assay type: binding; settings: H131 allele
Procedure: as §1

[3] = tested on: FCγIIb/c; test: as above; assay type: binding
Procedure: as §1

[4] = tested on: human C1q; test: Reverse ELISA: inhibition of PAP immune complex binding to C1q coated plates
Source text: (§2) For this reason, a “reverse ELISA” technique has been used to assess binding of the Fc region to ligands that bind to immune complexed IgG Fc. In a reverse ELISA, the enzyme (e.g., HRP) is not covalently conjugated to the Fc portion of the secondary antibody. Rather, a preformed immune complex of peroxidase-rabbit (or mouse) anti-peroxidase IgG (“PAP” complex) is used. […] In the reverse ELISA system, an Fc CH2-CH3 cleft binding ligand (e.g., purified human C1q) was bound to microwell plates. In the absence of competitor, PAP complexes bound to the immobilized ligand and the reaction between HRP and its substrate produces a signal. This signal was reduced by polypeptides and compounds that inhibited PAP binding to the immobilized ligand.
PAP complexes were formed mixing 2 μl of rabbit anti-peroxidase (Sigma Chemicals, St. Louis, Mo.; Cat. No. P7899) with 50 μl of peroxidase (Sigma-Aldrich, Cat. No. P6782) in 1 ml distilled water. PAP (100 μl) were pre-incubated with 100 μl of peptide for one hour, 100 μl were pre-incubated with 100 μl of peptide or human C1q (Quidel Corp., San Diego, Calif.) for one hour. The C1q/PAP and peptide/PAP mixtures (100 μl) were incubated with C1q coated plates for 30 minutes. After washing, plates were incubated with ATBS (Quidel Corp.) for 15 minutes and read at 405 nm.

[5] = tested on: Fcγ1; test: Repeated FcγR reverse ELISA with SEQ ID NO:20 (Table 3); assay type: binding
[6] = tested on: FcγIIa (R131 allele); test: FcγR reverse ELISA: inhibition of PAP immune complex binding (Table 2); settings: PAP/peptide mixture on FcγR coated plates; positive control 1.599
Source text: as §2
(§3) Once the reverse ELISA protocol was established using the C1q assay, the assay was redesigned using FcγIIa, FcγIIb and FcγIII in place of C1q. Highly purified FcγIIa, FcγIIb and FcγIII (R&D Systems, Minneapolis, Minn.) were immunoadsorbed onto plastic microwells. After optimizing the FcγR reverse ELISA system, simple competitive inhibition experiments using polypeptides provided herein were conducted to investigate their ability to inhibit binding of immune complexes to purified FcγR.
(§4) Falcon microtiter plates were coated with 1:10 dilutions of highly purified FcγIIa, FcγIIb and FcγIII and incubated for 24 hours. The plates were washed and then blocked with 5×BSA blocking solution (Alpha Diagnostic International, San Antonio, Tex.) for 24 hours. PAP immune complexes were formed as described in Example 1. PAP (100 μl) were pre-incubated with 100 μl of peptide for one hour. PAP/peptide mixtures were added to the FcγR coated plates and incubated for one hour. After washing, plates were incubated with ABTS substrate (Quidel Corp.) for 15 minutes and read at 405 nm.

[7] = tested on: FcγIIb; test: as above; settings: PAP/peptide mixture on FcγR coated plates; positive control 1.394
Source text: as §2, §3, §4

[8] = tested on: FcγIIIa; test: as above; settings: PAP/peptide mixture on FcγR coated plates; positive control 1.588
Source text: as §2, §3, §4

[9] = tested on: Fc receptor (FcγI, FcγIIa/FcγIIb, and FcγIII); test: FcγR reverse ELISA, overall statements on FcR binding to PAP immune complexes
Procedure: as §3, §4
Experiments with SEQ ID NO:20 were repeated. Costar microtiter plates were coated with 1:10 dilutions of highly purified FcγIIa (His 131 allele aka […]), FcγIIb and FcγIIIb and incubated for 24 hours. […] After washing, plates were incubated with ABTS substrate for 15 minutes and read at 405 nm.

Ala-Pro-Pro-Asp-Cys-Ala-Trp-His-Leu-Gly-Glu-Leu-Val-Trp-Cys-Thr (APPDCAWHLGELVWCT) [SEQ ID NO:20]
FCγIIIb (NA2) (read at 405 nm) ([1]; repeat experiment, positive control 3.060): 0.266 | % inhibition of IC binding, FCγIIIb (NA2) ([1]; versus positive control): 91% | FCγIIa* (read at 405 nm) ([2]; repeat experiment, positive control 3.509): 0.209 | % inhibition of IC binding, FCγIIa* ([2]; versus positive control): 94% | FCγIIb/c (read at 405 nm) ([3]; repeat experiment, positive control 2.218): 0.266 | % inhibition of IC binding, FCγIIb/c ([3]; versus positive control): 88% | OD 405 nm ([4]; PAP pre-incubated with peptide or C1q one hour, C1q coated plates, lower OD = more inhibition, positive control 2.355): 0.389 | Inhibition of C1q binding (ranking in words) ([4]; summary of Table 1): greatest inhibition of C1q binding | Fcγ1 (read at 405 nm) ([5]; repeat experiment, positive control 2.333): 0.264 | % inhibition of IC binding, Fcγ1 ([5]; versus positive control): 89% | OD405 FcγIIa (R131 allele) [6]: 0.509 | OD405 FcγIIb [7]: 0.496 | OD405 FcγIIIa [8]: 0.670 | Overall inhibition of FcR binding to PAP (ranking in words) ([9]; summary of Table 2: FcγIIa, FcγIIb, FcγIIIa): greatest overall inhibition of FcR binding to PAP | Inhibition of Fc receptor binding to soluble PAP immune complexes ([9]; summary of Table 3): inhibited binding of all three major classes of Fc receptor
